According to patent US10493070B2 (priority 2016, dated 2019):

test system: recombinant NL4-3 virus (NLRluc, Renilla luciferase in nef, Gag P373S); assay: HIV cell culture assay (Renilla luciferase reporter virus in MT-2 cells); type: cell-based; conditions: Renilla, NL43, read-out: 10% FBS EC50, 10% FBS, class symbols A/B/C
Description: MT-2 cells and 293T cells were obtained from the NIH AIDS Research and Reference Reagent Program. MT-2 cells were propagated in RPMI 1640 media supplemented with 10% heat inactivated fetal bovine serum, […]. The 293T cells were propagated in DMEM media supplemented with 10% heat inactivated fetal bovine serum (FBS), 100 units/ml penicillin G and 100 μg/ml streptomycin. The proviral DNA clone of NL4-3 was obtained from the NIH AIDS Research and Reference Reagent Program. A recombinant NL4-3 virus, in which a section of the nef gene from NL4-3 was replaced with the Renilla luciferase gene, was used as a reference virus. In addition, residue Gag P373 was converted to P373S. Briefly, the recombinant virus was prepared by transfection of the altered proviral clone of NL4-3. Transfections were performed in 293T cells using LipofectAMINE PLUS from Invitrogen (Carlsbad, Calif.), according to manufacturer's instruction. The virus was titered in MT-2 cells using luciferase enzyme activity as a marker. Luciferase was quantitated using the Dual Luciferase kit from Promega (Madison, Wis.), with modifications to the manufacturer's protocol. The diluted Passive Lysis solution was pre-mixed with the re-suspended Luciferase Assay Reagent and the re-suspended Stop & Glo Substrate (2:1:1 ratio). Fifty (50) μL of the mixture was added to each aspirated well on assay plates and luciferase activity was measured immediately on a Wallac TriLux (Perkin-Elmer). Antiviral activities of inhibitors toward the recombinant virus were quantified by measuring luciferase activity in cells infected for 4-5 days with NLRluc recombinants in the presence serial dilutions of the inhibitor. Table 16 is the key for the data in Table 17.

Which EC50 does the source give for `CC1(C)C(c2ccc(C(=O)O)cc2)=CC[C@]2(C)CN(c3cc(F)cc(-c4nnn(CCN5CCS(=O)(=O)CC5)n4)c3)CC=C12` [Example B8] here?
Its EC50 is less than 500 nM.

With `CN(C)c1ccccc1C(=O)N1CC=C2C(C)(C)C(c3ccc(C(=O)O)cc3)=CC[C@]2(C)C1` [Example 23] as the molecule, how does the EC50 read?
The EC50 was greater than 3000 nM.

For `COCCn1c(-c2ccccc2C(=O)N2CC=C3C(C)(C)C(c4ccc(C(=O)O)cc4)=CC[C@]3(C)C2)nc2cc(C(=O)O)ccc21` [Example A296], which EC50 is on record?
Its EC50 is greater than 3000 nM.

`CC1(C)C(c2ccc(C(=O)O)cc2)=CC[C@]2(C)CN(C(=O)C(=O)N3CCC[C@H]3C(=O)NCCCN3CCS(=O)(=O)CC3)CC[C@@H]12` [Example C2, 4-((4aS,8aS)-2-(2-((S)-2-((3-(1,1-dioxidothiomorpholino)propyl)carbamoyl)pyrrolidin-1-yl)-2-oxoacetyl)-5,5,8a-trimethyl-1,2,3,4,4a,5,8,8a-octahydroisoquinolin-6-yl)benzoic acid] was tested. Which EC50 did it give?
Its EC50 is greater than 3000 nM.

Which EC50 does the source give for `CC1(C)C(c2ccc(C(=O)O)cc2)=CC[C@]2(C)CN(C(=O)C(=O)N3CC=C4C(C)(C)C(c5ccc(C(=O)O)cc5)=CC[C@]4(C)C3)CC=C12` [Example 9] here?
The EC50 was greater than 3000 nM.

For `CC1(C)C(c2ccc(C(=O)O)cc2)=CC[C@]2(C)CN(C(=O)c3ccccc3-c3nc4ccccc4n3CCN3CCS(=O)(=O)CC3)CC=C12` [Example 81], which EC50 is on record?
Its EC50 is 500 to 3000 nM.

For `CC(C)(C)OC(=O)NCc1ccc(C(=O)N2CC=C3C(C)(C)C(c4ccc(C(=O)O)cc4)=CC[C@]3(C)C2)cc1` [Example 33], which EC50 is on record?
Its EC50 is greater than 3000 nM.

With `CC(C)C[C@H](N)C(=O)N1CCC(C(=O)N2CC=C3C(C)(C)C(c4ccc(C(=O)O)cc4)=CC[C@]3(C)C2)(c2ccccc2)CC1` [Example 56] as the molecule, how does the EC50 read?
Its EC50 is less than 500 nM.

`CC1(C)C(c2ccc(C(=O)O)cc2)=CC[C@]2(C)CN(c3cc(F)cc(-c4nn[nH]n4)c3)CC=C12` [Example B7] was tested. Which EC50 did it give?
Its EC50 is greater than 3000 nM.

How did the EC50 turn out when `CC(C)C[C@@H](NC(=O)OC(C)(C)C)C(=O)N1CCC(C(=O)N2CC=C3C(C)(C)[C@@H](c4ccc(C(=O)O)cc4)CC[C@]3(C)C2)(c2ccccc2)CC1` [Example 88] was run?
The EC50 was less than 500 nM.

How did the EC50 turn out when `CC1(C)C(c2ccc(C(=O)O)cc2)=CC[C@]2(C)CN(C(=O)c3cccc(CN4CCS(=O)(=O)CC4)c3)CC=C12` [Example 38] was run?
Its EC50 is greater than 3000 nM.

Which EC50 does the source give for `CC1(C)C(c2ccc(C(=O)O)cc2)=CC[C@]2(C)CN(C(=O)c3ccc(C(=O)N4CC=C5C(C)(C)C(c6ccc(C(=O)O)cc6)=CC[C@]5(C)C4)s3)CC=C12` [Example 62] here?
The EC50 was greater than 3000 nM.

With `Cc1nn(-c2ccccc2)nc1C(=O)N1CC=C2C(C)(C)C(c3ccc(C(=O)O)cc3)=CC[C@]2(C)C1` [Example A40] as the molecule, how does the EC50 read?
Its EC50 is greater than 3000 nM.

How did the EC50 turn out when `CN(C)c1cccc(C(=O)N2CC=C3C(C)(C)C(c4ccc(C(=O)O)cc4)=CC[C@]3(C)C2)c1` [Example 24] was run?
Its EC50 is greater than 3000 nM.

How did the EC50 turn out when `CC1(C)C(c2ccc(C(=O)O)cc2)=CC[C@]2(C)CN(c3cc(N)cc(-c4nnn(CCN5CCS(=O)(=O)CC5)n4)c3)CC=C12` [Example B3, (S)-4-(2-(3-amino-5-(2-(2-(1,1-dioxidothiomorpholino)ethyl)-2H-tetrazol-5-yl)phenyl)-5,5,8a-trimethyl-1,2,3,5,8,8a-hexahydroisoquinolin-6-yl)benzoic acid] was run?
Its EC50 is greater than 3000 nM.

For `COc1cccc(C(=O)N2CC=C3C(C)(C)C(c4ccc(C(=O)O)cc4)=CC[C@]3(C)C2)c1` [Example 18], which EC50 is on record?
The EC50 was greater than 3000 nM.

`CC1(C)C(c2ccc(C(=O)O)cc2)=CC[C@]2(C)CN(C(=O)c3cccc(C(=O)N4CC=C5C(C)(C)C(c6ccc(C(=O)O)cc6)=CC[C@]5(C)C4)c3)CC=C12` [Example 58, 4,4′-((8aS,8a′S)-isophthaloylbis(5,5,8a-trimethyl-1,2,3,5,8,8a-hexahydroisoquinoline-2,6-diyl))dibenzoic acid] was tested. Which EC50 did it give?
Its EC50 is less than 500 nM.

For `CN(C)CCC(=O)N1CC=C2C(C)(C)C(c3ccc(C(=O)O)cc3)=CC[C@]2(C)C1` [Example 34], which EC50 is on record?
Its EC50 is greater than 3000 nM.

Which EC50 does the source give for `CC1(C)C(c2ccc(C(=O)O)cc2)=CC[C@]2(C)CN(C(=O)c3cscc3C(=O)NCCCN3CCS(=O)(=O)CC3)CC=C12` [Example 73] here?
The EC50 was greater than 3000 nM.

With `Cc1cc2nc(-c3ccccc3C(=O)N3CC=C4C(C)(C)C(c5ccc(C(=O)O)cc5)=CC[C@]4(C)C3)[nH]c2cc1Cl` [Example A254] as the molecule, how does the EC50 read?
The EC50 was less than 500 nM.

For `CC1(C)C(c2ccc(C(=O)O)cc2)=CC[C@]2(C)CN(C(=O)c3ccc4[nH]ccc4c3)CC=C12` [Example 43], which EC50 is on record?
Its EC50 is greater than 3000 nM.

`CC1(C)C(c2ccc(C(=O)O)cc2)=CC[C@]2(C)CN(C(=O)c3ccc(N4CCOCC4)cc3)CC=C12` [Example 28] was tested. Which EC50 did it give?
The EC50 was greater than 3000 nM.

Which EC50 does the source give for `CC(=O)NCCn1c(-c2ccccc2C(=O)N2CC=C3C(C)(C)C(c4ccc(C(=O)O)cc4)=CC[C@]3(C)C2)nc2cc(C(=O)O)ccc21` [Example A294] here?
Its EC50 is greater than 3000 nM.

same assay, conditions: Renilla, NL43, read-out: 10% FBS EC50, 10% FBS, numeric values

For `CC(C)C1(C(=O)N2CC=C3C(C)(C)C(c4ccc(C(=O)O)cc4)=CC[C@]3(C)C2)CCN(C(=O)OC(C)(C)C)CC1` [Example 49], which EC50 is on record?
Its EC50 is 1180 nM.

How did the EC50 turn out when `CC1(C)C(c2ccc(C(=O)O)cc2)=CC[C@]2(C)CN(c3ncnc(N4CC=C5C(C)(C)C(c6ccc(C(=O)O)cc6)=CC[C@]5(C)C4)n3)CC=C12` [Example 75] was run?
Its EC50 is 190 nM.

Which EC50 does the source give for `Cc1cc2nc(-c3ccccc3C(=O)N3CC=C4C(C)(C)C(c5ccc(C(=O)O)cc5)=CC[C@]4(C)C3)[nH]c2cc1C` [Example 97, (S)-4-(2-(2-(5,6-dimethyl-1H-benzo[d]imidazol-2-yl)benzoyl)-5,5,8a-trimethyl-1,2,3,5,8,8a-hexahydroisoquinolin-6-yl)benzoic acid] here?
The EC50 was 51 nM.

Which EC50 does the source give for `CC1(C)C(c2ccc(C(=O)O)cc2)=CC[C@]2(C)CN(C(=O)c3ccccc3-c3nc4cc(Br)c(Br)cc4[nH]3)CC=C12` [Example 99, (S)-4-(2-(2-(5,6-dibromo-1H-benzo[d]imidazol-2-yl)benzoyl)-5,5,8a-trimethyl-1,2,3,5,8,8a-hexahydroisoquinolin-6-yl)benzoic acid] here?
The EC50 was 16 nM.

How did the EC50 turn out when `CC1(C)C(c2ccc(C(=O)O)cc2)=CC[C@]2(C)CN(c3cc(O)cc(-c4nnn(CCN5CCS(=O)(=O)CC5)n4)c3)CC=C12` [Example B9] was run?
The EC50 was 1170 nM.

For `CC1(C)C(c2ccc(C(=O)O)cc2)=CC[C@]2(C)CN(C(=O)c3ccccc3N3CCN(CCN4CCS(=O)(=O)CC4)CC3)CC=C12` [Example 44], which EC50 is on record?
Its EC50 is 520 nM.

Which EC50 does the source give for `CN1Cc2c(ccc3nc(-c4ccccc4C(=O)N4CC=C5C(C)(C)C(c6ccc(C(=O)O)cc6)=CC[C@]5(C)C4)[nH]c23)C(c2ccccc2)C1` (stereo partly shown) [Example 100] here?
The EC50 was 2810 nM.

For `CC(C)(C)OC(=O)N1CCC(C(=O)N2CC=C3C(C)(C)C(c4ccc(C(=O)O)cc4)=CC[C@]3(C)C2)(C2CCCCC2)CC1` [Example 50], which EC50 is on record?
The EC50 was 290 nM.

How did the EC50 turn out when `CC1(C)C(c2ccc(C(=O)O)cc2)=CC[C@]2(C)CN(c3cccc(Br)n3)CC=C12` [Example 76] was run?
The EC50 was 980 nM.

Which EC50 does the source give for `CN1CCN(c2ccc(C(=O)N3CC=C4C(C)(C)C(c5ccc(C(=O)O)cc5)=CC[C@]4(C)C3)cc2)CC1` [Example 30] here?
The EC50 was 2270 nM.

With `CC(C)(C)OC(=O)N1CCN(c2ccccc2C(=O)N2CC=C3C(C)(C)C(c4ccc(C(=O)O)cc4)=CC[C@]3(C)C2)CC1` [Example 11, (S)-4-(2-(2-(4-(tert-butoxycarbonyl)piperazin-1-yl)benzoyl)-5,5,8a-trimethyl-1,2,3,5,8,8a-hexahydroisoquinolin-6-yl)benzoic acid] as the molecule, how does the EC50 read?
Its EC50 is 460 nM.

With `CCOc1cccc2cc(C(=O)N3CC=C4C(C)(C)C(c5ccc(C(=O)O)cc5)=CC[C@]4(C)C3)oc12` [Example A46] as the molecule, how does the EC50 read?
The EC50 was 1320 nM.

`Cc1ccc2oc(-c3ccccc3C(=O)N3CC=C4C(C)(C)C(c5ccc(C(=O)O)cc5)=CC[C@]4(C)C3)nc2c1` [Example A309] was tested. Which EC50 did it give?
The EC50 was 171 nM.

How did the EC50 turn out when `CC(C)C[C@@H](N)C(=O)N1CCC(C(=O)N2CC=C3C(C)(C)C(c4ccc(C(=O)O)cc4)=CC[C@]3(C)C2)(c2ccccc2)CC1` [Example 57] was run?
Its EC50 is 148 nM.

For `CC1(C)C(c2ccc(C(=O)O)cc2)=CC[C@]2(C)CN(C(=O)c3ccccc3-c3nc4ccccc4n3-c3ccccc3)CC=C12` [Example A279], which EC50 is on record?
The EC50 was 390 nM.

With `CC1(C)C(c2ccc(C(=O)O)cc2)=CC[C@]2(C)CN(C(=O)c3ccccc3-c3nc4c(Cl)cc(Cl)cc4[nH]3)CC=C12` [Example A268] as the molecule, how does the EC50 read?
Its EC50 is 14 nM.

Which EC50 does the source give for `CC(C)(C)OC(=O)NCCn1c(-c2ccccc2C(=O)N2CC=C3C(C)(C)C(c4ccc(C(=O)O)cc4)=CC[C@]3(C)C2)nc2cc(C(F)(F)F)ccc21` [Example A283] here?
The EC50 was 1370 nM.

Which EC50 does the source give for `CC1(C)C(c2ccc(C(=O)O)cc2)=CC[C@]2(C)CN(C(=O)[C@H]3CC[C@H](N)CC3)CC=C12` [Example 52] here?
The EC50 was 3620 nM.

For `CC1(C)C(c2ccc(C(=O)O)cc2)=CC[C@]2(C)CN(C(=O)c3ccccc3-c3nc4ccccc4n3CC34CCN(CC3)CC4)CC=C12` [Example A275], which EC50 is on record?
Its EC50 is 1700 nM.

same assay, conditions: read-out: 10% FBS EC50, 10% FBS, numeric values

Which EC50 does the source give for `CN1Cc2c(ccc3nc(-c4ccccc4C(=O)N4CC=C5C(C)(C)C(c6ccc(C(=O)O)cc6)=CC[C@]5(C)C4)[nH]c23)C(c2ccccc2)C1` (stereo partly shown) [Example 101] here?
The EC50 was 2980 nM.
